Source: patent publication US10941114B2, “Small molecule lipid II inhibitors” (University Of Maryland, Baltimore, priority 2015, dated 2021)
Where a name gives a salt, the structure may show the parent alone.

Assays:
[1] = Surface Plasmon Resonance determination of Lipid II binding; conditions: SPR
Experimental: Short-chain water-soluble LII containing a lipid tail of three isoprene units (3-LII) was generated and purified essentially according to methods known in the art. See Breukink et al., Lipid II is an intrinsic component of the pore induced by nisin in bacterial membranes. J. Biol. Chem. 278(22):19898-19903, 2003, the contents of which are hereby incorporated by reference. Typically, M. flavus vesicles (120 μmol lipid-Pi) were incubated together with 500 μmol UDP-GlcNAc, 500 μmol UDP-MurNAC-pentapeptide and 400 μmol farnesyl phosphate in 100 mM Tris-HCl pH 8.0, 5 mM MgCl2. The incubation period was approximately two hours at room temperature for 3-LII (3-P). The synthesis of 3-Lipid II was followed by RP-8 reversed phase TLC (Merck™) developed with 75% methanol. For purification, the membranes were removed by centrifugation at 40,000×g; the supernatant was collected and loaded on a C18 HPLC column and eluted with a linear gradient from 50 mM ammonium bicarbonate to 100% methanol in 30 minutes. Farnesyl-Lipid II (3-Lipid II) eluted at approximately 60% methanol. Its identity was confirmed by mass spectroscopy.
Surface Plasmon Resonance binding experiments were carried out on a BIAcore T100 system (BIAcore™ Inc., Piscataway, N.Y.) at 25° C. The assay buffer was 10 mM HEPES, 150 mM NaCl, 0.05% surfactant P20, pH 7.4 (+3 mM EDTA) supplemented with 10% DMSO. 3-Lipid II (50 RUs) was immobilized on CMS sensor chips using the amine-coupling chemistry recommended by the manufacturer. For initial determination of binding, compounds were introduced into the flow-cells (30.mu·1/min) in the running buffer at 10 μM. Resonance signals were corrected for nonspecific binding by subtracting the background of the control flow-cell. Binding to immobilized 3-LII on the chip surface was determined and scored “yes” in Table 5 when more than 20 Resonance Units or RUs were detected. Detection of less than 20 RUs was scored as “no”, meaning no significant binding to LII. After each analysis, the sensor chip surfaces were regenerated with 50 mM NaOH for 30 seconds at a flow rate 100 μL/min, and equilibrated with the buffer prior to next injection. For binding kinetics studies, binding isotherms were analyzed with manufacturer-supplied software for BIAcore™ T100.

Staphylococcus aureus = assay: Antibacterial activity assay (MIC, broth dilution); type: cell-based; set-up: S. aureus Killing / Bacterial Killing S. aureus: unit not given here; conditions: for Bacterial Killing S. aureus: determined as in Example 1E (MIC); for MIC: Staphylococcus aureus, Table 16, CLSI M07-A10 dilution method, read-out: MIC S. aureus; for MIC SA: S. aureus USA300 (MRSA), average of two replicates
Enterococcus faecium = assay: Antibacterial activity assay (MIC, broth dilution); type: cell-based; set-up: Bacterial Killing E. faecium: unit: ug/mL; conditions: for Bacterial Killing E. faecium: determined as in Example 1E (MIC); for MIC: Enterococcus faecium, Table 16, CLSI M07-A10 dilution method, read-out: MIC E. faecium; for MIC EF: average of two replicates
Experimental: (§1) Determination of the Minimal Inhibitory Concentrations (MIC) by dilution was carried out by broth dilution according to CLSI standards. See CLSI, Methods for Dilution Antimicrobial Susceptibility Tests for Bacteria That Grow Aerobically; Approved Standard—Eighth Edition. 2009, the contents of which are hereby incorporated by reference. Briefly, the minimum inhibitory concentration MIC, is the lowest concentration of a compound that prevents visible growth of a bacterium, in other words at which it has bacteriostatic activity.
For these tests, cation-adjusted Mueller Hinton broth, containing 10% brain-heart infusion (BHI) was used. Concentrations (MIC) are given in μg/mL. The compound was […].
(§2) Compounds were tested for MIC by methods known in the art and described in CLSI, Methods for Dilution Antimicrobial Susceptibility Tests for Bacteria That Grow Aerobically; Approved Standard—Tenth Edition. CLSI document M07-A10. Wayne, Pa.: Clinical and Laboratory Standards Institute, 2015, which is hereby incorporated by reference for these methods.
(§3) Selected compounds also were tested by broth microdilution methods known in the art and described in CLSI, Methods for Dilution Antimicrobial Susceptibility Tests for Bacteria That Grow Aerobically; Approved Standard—Tenth Edition. CLSI document M07-A10. Wayne, Pa.: Clinical and Laboratory Standards Institute, 2015, which is hereby incorporated by reference. Structures of selected compounds in the tables are listed below.

Escherichia coli = assay: Antibacterial activity assay (MIC, broth dilution); type: cell-based; conditions: determined as in Example 1E (MIC)
Acinetobacter baumannii = assay: Antibacterial activity assay (MIC, broth dilution); type: cell-based; conditions: for MIC: Acinetobacter baumannii, Table 16, CLSI M07-A10 dilution method, read-out: MIC A. baumannii; for MIC AB: A. baumannii 2-2-2 (colistin-resistant clinical isolate), average of two replicates
Experimental: as §1, §2, §3

HeLa cells = assay: Cytotoxicity testing (CC50, MTS assay); conditions: HeLa cells
[2] = mouse, in vivo, iv, 10 mg/kg
[3] = Pharmacokinetic study in mice (plasma concentration by LC/MS/MS); conditions: single dose of 10 mg/kg by intravenous injection

SMILES: CN(C)c1ccc(/C=C/c2cc(-c3ccc(Cl)cc3)cc(-c3ccc(Cl)cc3)[o+]2)cc1 [(E)-2,4-bis(4-chlorophenyl)-6-(4-(dimethylamino)styryl)pyrylium boron tetrafluoride salt]
- Lipid II Binding ([1]; immobilized 3-LII, compounds at 10 μM): yes (scored “yes” in Table 5 when more than 20 Resonance Units or RUs were detected)
- S. aureus Killing (Staphylococcus aureus; anti-bacterial activity (MIC), strain not stated): 32

SMILES: CN1/C(=C/C=C/c2cc(-c3ccc(Cl)cc3)cc(-c3ccc(Cl)cc3)[o+]2)C(C)(C)c2ccccc21 [Compound 7jc42-1]
- Bacterial Killing S. aureus (Staphylococcus aureus): 8
- Bacterial Killing E. faecium (Enterococcus faecium): 32
- Bacterial Killing E. coli (Escherichia coli): >64

SMILES: CN1/C(=C/C=C/c2cc(-c3ccc(Br)cc3)cc(-c3ccc(Br)cc3)[o+]2)C(C)(C)c2ccccc21 [Compound 7jc42-2]
- Bacterial Killing S. aureus (Staphylococcus aureus): 32
- Bacterial Killing E. faecium (Enterococcus faecium): 32
- Bacterial Killing E. coli (Escherichia coli): >64

SMILES: CN(C)c1ccc(/C=C/c2cc(-c3cccc(F)c3)cc(-c3cccc(F)c3)[o+]2)cc1 [Compound 7jc46-1]
- Bacterial Killing S. aureus (Staphylococcus aureus): 1
- Bacterial Killing E. faecium (Enterococcus faecium): 2
- Bacterial Killing E. coli (Escherichia coli): >64

SMILES: CN(C)c1ccc(/C=C/C=C/c2cc(-c3ccc(F)cc3)cc(-c3ccc(F)cc3)[o+]2)cc1 [Compound 7jc47-2]
- Bacterial Killing S. aureus (Staphylococcus aureus): 1
- Bacterial Killing E. faecium (Enterococcus faecium): 1
- Bacterial Killing E. coli (Escherichia coli): >64

SMILES: Cc1ccc(-c2cc(-c3ccc(Br)cc3)cc(/C=C/c3ccc(N(C)CCC#N)cc3)[n+]2C)cc1C.[I-] [Compound 9u, (E)-4-(4-bromophenyl)-2-(4-((2-cyanoethyl)(methyl)amino)styryl)-6-(3,4-dimethylphenyl)-1-methylpyridin-1-ium iodide]
- MIC (Staphylococcus aureus): 2 µg/mL
- MIC (Enterococcus faecium): 8 µg/mL
- MIC (Acinetobacter baumannii): 16 µg/mL

SMILES: Cc1ccc(-c2cc(-c3ccc(Br)cc3)cc(/C=C/c3ccc(N(C)C)cc3)[n+]2C)cc1C.[I-] [Compound 9w, (E)-4-(4-bromophenyl)-2-(4-(dimethylamino)styryl)-6-(3,4-dimethylphenyl)-1-methylpyridin-1-ium iodide]
- MIC (Staphylococcus aureus): 1 µg/mL
- MIC (Enterococcus faecium): 4 µg/mL
- MIC (Acinetobacter baumannii): 8 µg/mL

SMILES: Cc1ccc(-c2cc(-c3ccc(Br)cc3)cc(/C=C/c3ccc(N(C)CCO)cc3)[n+]2C)cc1C.[I-] [Compound 9x, (E)-4-(4-bromophenyl)-2-(3,4-dimethylphenyl)-6-(4-((2-hydroxyethyl)(methyl)-amino)styryl)-1-methylpyridin-1-ium iodide]
- MIC (Staphylococcus aureus): 1 µg/mL
- MIC (Enterococcus faecium): 8 µg/mL
- MIC (Acinetobacter baumannii): 16 µg/mL

SMILES: COc1cc(-c2cc(/C=C/c3ccc(N(C)C)cc3)[n+](C)c(-c3ccc(Br)cc3)c2)cc(OC)c1Br.[I-] [Compound 9y1, (E)-4-(4-bromo-3,5-dimethoxyphenyl)-2-(4-bromophenyl)-6-(4-(dimethyl-amino)styryl)-1-methylpyridin-1-ium iodide]
- MIC (Staphylococcus aureus): 2 µg/mL
- MIC (Enterococcus faecium): 8 µg/mL
- MIC (Acinetobacter baumannii): 16 µg/mL

SMILES: CCN(CC)c1ccc(/C=C/c2cc(-c3cc(OC)c(Br)c(OC)c3)cc(-c3ccc(Br)cc3)[n+]2C)cc1.[I-] [Compound 9y2, (E)-4-(4-bromo-3,5-dimethoxyphenyl)-2-(4-bromophenyl)-6-(4-(diethylamino)-styryl)-1-methylpyridin-1-ium iodide]
- MIC (Staphylococcus aureus): 1 µg/mL
- MIC (Enterococcus faecium): 4 µg/mL
- MIC (Acinetobacter baumannii): 8 µg/mL

SMILES: COc1cc(-c2cc(/C=C/c3ccc(N(C)CCO)cc3)[n+](C)c(-c3ccc(Br)cc3)c2)cc(OC)c1Br.[I-] [Compound 9y3, (E)-4-(4-bromo-3,5-dimethoxyphenyl)-2-(4-bromophenyl)-6-(4-((2-hydroxy-ethyl)(methyl)amino)styryl)-1-methylpyridin-1-ium iodide]
- MIC (Staphylococcus aureus): 4 µg/mL
- MIC (Enterococcus faecium): 8 µg/mL
- MIC (Acinetobacter baumannii): 8 µg/mL

SMILES: COc1cc(-c2cc(/C=C/c3ccc(N(C)CCC#N)cc3)[n+](C)c(-c3ccc(Br)cc3)c2)cc(OC)c1Br.[I-] [Compound 9y4, (E)-4-(4-bromo-3,5-dimethoxyphenyl)-2-(4-bromophenyl)-6-(4-((2-cyano-ethyl)(methyl)amino)styryl)-1-methylpyridin-1-ium iodide]
- MIC (Staphylococcus aureus): 4 µg/mL
- MIC (Enterococcus faecium): 8 µg/mL
- MIC (Acinetobacter baumannii): 8 µg/mL

SMILES: CN(C)c1ccc(/C=C/c2cc(-c3ccc(Br)cc3Cl)cc(-c3ccc(Br)cc3)[n+]2C)cc1.[I-] [Compound 9z1, (E)-4-(4-bromo-2-chlorophenyl)-2-(4-bromophenyl)-6-(4-(dimethylamino)-styryl)-1-methylpyridin-1-ium iodide]
- MIC (Staphylococcus aureus): 4 µg/mL
- MIC (Enterococcus faecium): 8 µg/mL
- MIC (Acinetobacter baumannii): 32 µg/mL

SMILES: CCN(CC)c1ccc(/C=C/c2cc(-c3ccc(Br)cc3Cl)cc(-c3ccc(Br)cc3)[n+]2C)cc1.[I-] [Compound 9z2, (E)-4-(4-bromo-2-chlorophenyl)-2-(4-bromophenyl)-6-(4-(diethylamino)-styryl)-1-methylpyridin-1-ium iodide]
- MIC (Staphylococcus aureus): 0.5 µg/mL
- MIC (Enterococcus faecium): 1 µg/mL
- MIC (Acinetobacter baumannii): 2 µg/mL

SMILES: CN(CCO)c1ccc(/C=C/c2cc(-c3ccc(Br)cc3Cl)cc(-c3ccc(Br)cc3)[n+]2C)cc1.[I-] [Compound 9z3, (E)-4-(4-bromo-2-chlorophenyl)-2-(4-bromophenyl)-6-(4-((2-hydroxyethyl)-(methyl)amino)styryl)-1-methylpyridin-1-ium iodide]
- MIC (Staphylococcus aureus): 2 µg/mL
- MIC (Enterococcus faecium): 4 µg/mL
- MIC (Acinetobacter baumannii): 16 µg/mL

SMILES: CN(CCC#N)c1ccc(/C=C/c2cc(-c3ccc(Br)cc3Cl)cc(-c3ccc(Br)cc3)[n+]2C)cc1.[I-] [Compound 9z4, (E)-4-(4-bromo-2-chlorophenyl)-2-(4-bromophenyl)-6-(4-((2-cyanoethyl)-(methyl)amino)styryl)-1-methylpyridin-1-ium iodide]
- MIC (Staphylococcus aureus): 2 µg/mL
- MIC (Enterococcus faecium): 4 µg/mL
- MIC (Acinetobacter baumannii): 32 µg/mL

SMILES: CN(C)c1ccc(/C=C/c2cc(-c3ccc(Br)cc3)cc(-c3ccc(Br)cc3)[n+]2C)cc1.[I-] [EL-2]
- MIC SA (Staphylococcus aureus): 1 µg/mL
- MIC EF (Enterococcus faecium; E. faecium EF1509 (VRE)): 1 µg/mL
- MIC EF (Enterococcus faecium; text: E. faecium EF1509 (VRE), footnote: Enterococcus faecalis ATCC 1509): 1 µg/mL
- MIC AB (Acinetobacter baumannii): 8 µg/mL
- CC50 (HeLa cells; exposure 24 hour): 5 µg/mL
- CC50 (HeLa cells; exposure 24 hours): 5 µg/mL

SMILES: CC(C)[n+]1c(/C=C/c2ccc(N(C)C)cc2)cc(-c2ccc(Br)cc2)cc1-c1ccc(Br)cc1.[I-] [EL-3]
- MIC SA (Staphylococcus aureus): 2 µg/mL
- MIC EF (Enterococcus faecium; E. faecium EF1509 (VRE)): 2 µg/mL
- MIC AB (Acinetobacter baumannii): 16 µg/mL
- CC50 (HeLa cells; exposure 24 hour): 9 µg/mL

SMILES: CN(C)c1ccc(/C=C/c2cc(-c3ccc(Br)cc3)cc(-c3ccc(Br)cc3)[n+]2C2CCCCC2)cc1.[I-] [EL-5]
- Lipid II binding affinity ([1]; FIG. 16): below micromolar
- MIC SA (Staphylococcus aureus): 1 µg/mL
- MIC EF (Enterococcus faecium; E. faecium EF1509 (VRE)): 0.25 µg/mL
- MIC AB (Acinetobacter baumannii): 0.5 µg/mL
- AUCInf [2]: 4125 ± 780 ng·h/mL
- Cl—obs [2]: 41.29 ± 7 mL/min/kg
- MRT [2]: 18.8 ± 1.62 h
- T1/2 [2]: 23.8 ± 0.84 h
- CC50 (HeLa cells; exposure 24 hour): 4 µg/mL
- AUCextrap [3]: 27.2 ± 1.6%
- AUClast/D ([3]; AUClast/D): 300 ± 58 ng·h/mL
